Laboratory results published in patent US11040036B2, “Pyruvate kinase activators for use in treating blood disorders” (Agios Pharmaceuticals, Inc., priority 2017, dated 2021).

Legend:
wild type PKR [1] = biological target: T1, wild type PKR (Homo sapiens, UniProt P30613); test: Cell based ATP assay in purified red blood cells; design: endogenous in cells; host or cells: purified red blood cells from blood of healthy volunteers; details: RBCs, overnight at 37° C., ATP levels by Cell-Titer-Glo
Summary of the method: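 Leukocyte-depleted red cells from healthy volunteers were held in AGAM (PBS, glucose, adenine, mannitol) at 1×10^7 cells/mL. They were treated with 1:4 serial compound dilutions at 0.1% DMSO final and incubated overnight at 37 °C in humidity. ATP was then quantified by CellTiter-Glo luminescence.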

wild type PKR [2] = biological target: T1, wild type PKR; test: PKR mutant assay (AC50), wild type PKR; type: biochemical; details: wild type PKR enzyme; read-out: PKR WT AC50
Summary of the method: (§1)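 Human wild-type PKR or R510Q/K410E mutant (40-400 ng/well) in 50 mM Tris pH 7.5, 100 mM KCl, 5 mM MgCl2, 1 mM DTT, 0.03% BSA with PEP 0.1-0.5 mM, 180 μM NADH and LDH coupling. Compound (11-point 3-fold series from 100 μM final) preincubated 60 min at room temperature. Reaction was started with ADP (0.2-1.65 mM) and NADH depletion was followed at 340 nm to give AC50.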

PKR R510Q = PKR R510Q (Homo sapiens, UniProt P30613, R510Q); test: PKR mutant assay (AC50), PKR R510Q; type: biochemical; details: PKR R510Q mutant enzyme; read-out: PK R510Q AC50
PKR R510Q, sequence (P30613 whole entry R510Q): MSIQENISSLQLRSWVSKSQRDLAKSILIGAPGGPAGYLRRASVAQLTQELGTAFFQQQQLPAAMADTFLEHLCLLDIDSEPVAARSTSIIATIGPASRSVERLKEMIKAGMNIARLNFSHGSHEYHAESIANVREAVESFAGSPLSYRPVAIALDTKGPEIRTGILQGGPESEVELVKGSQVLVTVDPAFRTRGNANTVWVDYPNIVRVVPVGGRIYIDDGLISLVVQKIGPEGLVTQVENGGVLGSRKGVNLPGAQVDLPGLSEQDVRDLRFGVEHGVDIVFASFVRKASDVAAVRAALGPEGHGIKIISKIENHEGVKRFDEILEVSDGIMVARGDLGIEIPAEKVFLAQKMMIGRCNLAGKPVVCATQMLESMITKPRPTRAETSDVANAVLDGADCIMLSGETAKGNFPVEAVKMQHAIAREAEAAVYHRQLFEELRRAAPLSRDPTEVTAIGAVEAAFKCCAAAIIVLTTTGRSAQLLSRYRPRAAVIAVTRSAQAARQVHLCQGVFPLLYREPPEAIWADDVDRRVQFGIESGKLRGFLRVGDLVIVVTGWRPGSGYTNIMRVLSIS
Summary of the method: as §1

PKR K410E = PKR K410E (Homo sapiens, UniProt P30613, K410E); test: PKR mutant assay (AC50), PKR K410E; type: biochemical; details: PKR K410E mutant enzyme
PKR K410E, sequence (P30613 whole entry K410E): as the sequence (P30613 whole entry R510Q) above, with K410E, Q510R counted along it
Summary of the method: as §1

T1 sequence (P30613 whole entry): as the sequence (P30613 whole entry R510Q) above, with Q510R counted along it

Row | Structure (SMILES) | AC50 (wild type PKR [1]) [nM] | AC50 (wild type PKR [2]) [nM] | AC50 (PKR R510Q) [nM] | AC50 (PKR K410E) [nM] | Cell based ATP assay AC50 (wild type PKR [1])
1 | Cn1c2nc(Cc3cc[nH]n3)sc2c2cnn(Cc3cnsc3)c(=O)c21 | ≤ 1000 | < 300 | < 300 | < 300 | 
2 | Cn1c2nc(Cc3cc[nH]n3)sc2c2cnn(Cc3ncsc3C#N)c(=O)c21 | ≤ 1000 | < 300 | < 300 | < 300 | 
3 | Cn1c2nc(Cc3cc[nH]n3)sc2c2cnn(Cc3ncsc3C(N)=O)c(=O)c21 | ≤ 1000 | < 300 | < 300 | < 300 | 
4 | Cn1c2nc(Cc3cc[nH]n3)sc2c2cnn(Cc3cnc(N)s3)c(=O)c21 | ≤ 1000 | < 300 | < 300 | < 300 | 
5 | Cn1c2nc(Cc3cc[nH]n3)sc2c2cnn(Cc3c[nH]cn3)c(=O)c21 | ≤ 1000 | < 300 | < 300 | < 300 | 
6 | Cn1c2nc(Cc3n[nH]cc3F)sc2c2cnn(Cc3nc(N)ccc3F)c(=O)c21 | ≤ 1000 | < 300 | < 300 | < 300 | 
7 | Cn1c2nc(Cc3cc[nH]n3)sc2c2cnn(Cc3n[nH]cc3O)c(=O)c21 | ≤ 1000 | < 300 | < 300 | < 300 | 
8 | COc1c[nH]nc1Cn1ncc2c3sc(Cc4n[nH]cc4F)nc3n(C)c2c1=O | ≤ 1000 | < 300 | < 300 | < 300 | 
9 | Cc1scnc1Cn1ncc2c3sc(Cc4n[nH]cc4F)nc3n(C)c2c1=O | ≤ 1000 | < 300 | < 300 | < 300 | 
10 | Cn1c2nc(Cc3cc[nH]n3)sc2c2cnn(Cc3nc(C#N)cs3)c(=O)c21 | ≤ 1000 | < 300 | < 300 | < 300 | 
11 | Cn1c2nc(Cc3cc[nH]n3)sc2c2cnn(Cc3nc(C(N)=O)cs3)c(=O)c21 | ≤ 1000 | < 300 | < 300 | < 300 | 
12 | Cn1c2nc(Cc3n[nH]cc3F)sc2c2cnn(Cc3ncsc3Cl)c(=O)c21 | ≤ 1000 | < 300 | < 300 | < 300 | 
13 | Cn1c2nc(Cc3cc[nH]n3)sc2c2cnn(Cc3cnc(N)o3)c(=O)c21 | ≤ 1000 | < 300 | 301 to 800 | < 300 | 
14 | Cn1cc(OC(F)(F)F)c(Cn2ncc3c4sc(Cc5cc[nH]n5)nc4n(C)c3c2=O)n1 | ≤ 1000 | < 300 | < 300 | < 300 | 
15 | Cn1c2nc(Cc3cc[nH]n3)sc2c2cnn(Cc3cnc(C(N)=O)o3)c(=O)c21 | > 1000 | 301 to 800 | 301 to 800 | 301 to 800 | 
16 | Cn1c2nc(Cc3cc[nH]n3)sc2c2cnn(Cc3ncsc3F)c(=O)c21 | ≤ 1000 | < 300 | < 300 | < 300 | 
17 | Cn1c2nc(Cc3cc[nH]n3)sc2c2cnn(Cc3c[nH]c(C(N)=O)n3)c(=O)c21 | ≤ 1000 | < 300 | < 300 | < 300 | 
18 | Cn1c2nc(Cc3cc[nH]n3)sc2c2cnn(Cc3coc(Cl)n3)c(=O)c21 | ≤ 1000 | < 300 | < 300 | < 300 | 
19 | Cn1c2nc(Cc3cc[nH]n3)sc2c2cnn(Cc3csc(Cl)n3)c(=O)c21 | ≤ 1000 | < 300 | < 300 | < 300 | 
20 | Cn1c2nc(Cc3cc[nH]n3)sc2c2cnn(Cc3ccn(N)n3)c(=O)c21 | ≤ 1000 | < 300 | < 300 | < 300 | 
21 | COCc1cn(C)nc1Cn1ncc2c3sc(Cc4cc[nH]n4)nc3n(C)c2c1=O | > 1000 | > 800 | > 800 | > 800 | 
22 | Cn1c2nc(Cc3cc[nH]n3)sc2c2cnn(Cc3ncoc3Cl)c(=O)c21 | ≤ 1000 | < 300 | < 300 | < 300 | 
23 | Cn1c2nc(Cc3cc[nH]n3)sc2c2cnn(Cc3n[nH]cc3OC(F)(F)F)c(=O)c21 | > 1000 | 301 to 800 | 301 to 800 | 301 to 800 | 
24 | Cn1c2nc(Cc3cc[nH]n3)sc2c2cnn(Cc3coc(N)n3)c(=O)c21 | ≤ 1000 | < 300 | < 300 | < 300 | 
25 | Cn1cc(CN)c(Cn2ncc3c4sc(Cc5cc[nH]n5)nc4n(C)c3c2=O)n1 | > 1000 | > 800 | < 300 | > 800 | 
26 | Cn1cc(CC(N)=O)c(Cn2ncc3c4sc(Cc5cc[nH]n5)nc4n(C)c3c2=O)n1 | > 1000 | > 800 | > 800 | > 800 | 

Row | Structure (SMILES) | AC50 (wild type PKR [1]) [nM] | AC50 (wild type PKR [2]) [nM] | AC50 (PKR R510Q) [nM] | AC50 (PKR K410E) [nM] | Cell based ATP assay AC50 (wild type PKR [1])
27 | Cn1c2nc(Cc3cc[nH]n3)sc2c2cnn(Cc3nc[nH]c3C(N)=O)c(=O)c21 | > 1000 | 301 to 800 | > 800 | 301 to 800 | 
28 | Cn1c2nc(Cc3cc[nH]n3)sc2c2cnn(Cc3csc(F)n3)c(=O)c21 | ≤ 1000 | < 300 | < 300 | < 300 | 
29 | Cn1c2nc(Cc3cc[nH]n3)sc2c2cnn(Cc3ccnn3N)c(=O)c21 | ≤ 1000 | < 300 | < 300 | < 300 | 
30 | Cn1c2nc(Cc3cc[nH]n3)sc2c2cnn(Cc3n[nH]c(=O)[nH]3)c(=O)c21 | > 1000 | > 800 | > 800 | > 800 | 
31 | Cn1c2nc(Cc3cc[nH]n3)sc2c2cnn(Cc3coc(C(N)=O)n3)c(=O)c21 | ≤ 1000 | > 800 | > 800 | > 800 | 
32 | Cn1c2nc(Cc3cc[nH]n3)sc2c2cnn(Cc3cc(=O)[nH][nH]3)c(=O)c21 | > 1000 | 301 to 800 | < 300 | 301 to 800 | 
33 | Cn1c2nc(Cc3cc[nH]n3)sc2c2cnn(Cc3nc[nH]c3N)c(=O)c21 | > 1000 | 301 to 800 | 301 to 800 | 301 to 800 | 
34 | Cn1c2nc(Cc3cc[nH]n3)sc2c2cnn(Cc3ccnc(N)n3)c(=O)c21 | ≤ 1000 | < 300 | < 300 | < 300 | 
35 | Cn1c2nc(Cc3cc[nH]n3)sc2c2cnn(Cc3nccc(N)n3)c(=O)c21 | ≤ 1000 | < 300 | < 300 | 301 to 800 | 
36 | COc1sc(Br)nc1Cc1nc2c(s1)c1cnn(Cc3cc[nH]n3)c(=O)c1n2C | ≤ 1000 | < 300 | < 300 | < 300 | 
37 | COc1scnc1Cc1nc2c(s1)c1cnn(Cc3cc[nH]n3)c(=O)c1n2C | ≤ 1000 | < 300 | < 300 | < 300 | 
38 | Cn1cc(C(=O)O)c(Cn2ncc3c4sc(Cc5cc[nH]n5)nc4n(C)c3c2=O)n1 | > 1000 | > 800 | > 800 | > 800 | 
39 | Cn1c2nc(Cc3n[nH]cc3F)sc2c2cnn(Cc3n[nH]cc3Cl)c(=O)c21 | ≤ 1000 | < 300 | < 300 | < 300 | 
40 | Cn1c2nc(Cc3n[nH]cc3F)sc2c2cnn(Cc3n[nH]cc3C(N)=O)c(=O)c21 | ≤ 1000 | < 300 | < 300 | < 300 | 
41 | COc1ncccc1Cn1ncc2c3sc(Cc4n[nH]cc4F)nc3n(C)c2c1=O | ≤ 1000 | < 300 | < 300 | < 300 | 
42 | Cn1c2nc(Cc3n[nH]cc3F)sc2c2cnn(Cc3ccc[nH]c3=O)c(=O)c21 | ≤ 1000 | < 300 | < 300 | < 300 | 
43 | Cn1c2nc(Cc3n[nH]cc3F)sc2c2cnn(Cc3n[nH]cc3C#N)c(=O)c21 | ≤ 1000 | < 300 | < 300 | < 300 | 
44 | CC(=O)Nc1ccc(F)c(Cn2ncc3c4sc(Cc5cnn(C)c5)nc4n(C)c3c2=O)n1 | > 1000 | > 800 | > 800 | > 800 | 
45 | Cn1ccc(Cn2ncc3c4sc(C(=O)c5cc[nH]n5)nc4n(C)c3c2=O)n1 | ≤ 1000 | > 800 | > 800 | > 800 | 
46 | Cn1c2nc(C(=O)c3cc[nH]n3)sc2c2cnn(Cc3cccc(N)n3)c(=O)c21 | ≤ 1000 | 301 to 800 | < 300 | < 300 | 
47 | CC(=O)Nc1ccc(F)c(Cn2ncc3c4sc(Cn5ccnc5)nc4n(C)c3c2=O)c1 | > 1000 | > 800 | > 800 | > 800 | 
48 | Cn1c2nc(Cc3ccccn3)sc2c2cnn(Cc3cccnc3)c(=O)c21 | ≤ 1000 | 301 to 800 | < 300 | 301 to 800 | 
49 | Cn1c2nc(Cn3cncn3)sc2c2cnn(Cc3ccnc(N)n3)c(=O)c21 |  | > 800 | > 800 | > 800 | No Fit
50 | Cn1c2nc(Cn3ccnc3)sc2c2cnn(Cc3ccnc(N)n3)c(=O)c21 |  | > 800 | > 800 | > 800 | No Fit
51 | CC(c1cc[nH]n1)c1nc2c(s1)c1cnn(Cc3cc[nH]n3)c(=O)c1n2C (stereo not shown) | ≤ 1000 | < 300 | < 300 | < 300 | 
52 | Cn1c2nc(C(=O)c3cc[nH]n3)sc2c2cnn(Cc3cc[nH]n3)c(=O)c21 | ≤ 1000 | 301 to 800 | 301 to 800 | > 800 | 
